Measurements published in US12138140B2, “Wound covering for wound monitoring and therapeutic agent delivery” (UVic Industry Partnerships Inc., priority 2017, dated 2024).

Assays:
[1] = dehydration test (weight loss over time); format: physicochemical; details: glycerol added to alginate
Procedure: One of the main advantages of using hydrogels as a substrate for wound dressings is their ability to retain moisture at the wound site. However, hydrogels may be prone to rapid dehydration, which can compromise the integrity of the dressing and ultimately affect its functionality. Rapid dehydration of the hydrogels can pose a challenge for the clinical application of gel-based dressings. The dehydration rate of the dermal patch was evaluated by measuring its weight loss at 37° C. and it was observed that the alginate patch was completely dehydrated in less than 10 hr (FIG. 26A). Influential parameters on dehydration rates including alginate concentration and dressing thickness were altered for these experiments. […]
The effect of Mepitel® on the dehydration rate of the hydrogel dressing was studied. Dressings with 2% w/v alginate were covered by Mepitel® and their weight were measured in 24 hr. […]
Dehydration and hydration tests: Square gel sheets (15 mm×15 mm) made of two different concentrations of alginate (2% and 6% w/v) and two different thicknesses (1.5 mm and 3 mm) were fabricated by crosslinking with agarose sheets containing CaCl2 similar to preparation of the patches. […] The weight was then recorded during definite time intervals for 3 hours and the degree of swelling was then obtained by determining the gained weight for each sample.

[2] = antibacterial efficiency of UV-sterilized gentamicin versus drug not treated with UV; format: cell-based; details: UV 365 nm, 200 mW/cm^2
From the text: In a representative example, multifunctional dressings were made according to the embodiments described herein comprising an array of porous color-changing pH sensors (e.g., the sensing elements 14) and drug-eluting scaffolds (e.g., the therapeutic agent delivery elements 16), which were embedded within an alginate dressing (FIG. 16A). The array of porous sensors (each sensor was 12×12 mm in size) comprised three-dimensionally (3D)-printed color-changing alginate fibers that were loaded with mesoporous resin beads doped with a pH-responsive dye (FIGS. 16A-16G). Alginate is a naturally-derived polysaccharide that can be used as a dressing material for epidermal applications due to its biocompatibility, hemostatic properties, and non-adhesive characteristics that facilitate the removal of the dressing without trauma and pain (14-18). With reference to FIG. 6A and FIGS. 16B and 16C, to print the sensors, a microextruder 60 comprising two coaxial needles 62 and 64 (FIG. 16C and FIGS. 22A-22B) mounted on a 3D printer (e.g., a Prusa i3) was used. The porosity of the sensors was adjusted by changing the diameter of the fibers while keeping the spacing between fibers constant. Encapsulation of the beads within the hydrogel fibers prevented the beads from dispersing in the wound area while providing a biocompatible interface with the wound site. […]

P. aeruginosa = experiment: semi quantitative bacteria inhibition assay of drug-eluting scaffolds on agar plate; format: cell-based, Pseudomonas aeruginosa; details: 3 mg/ml dosage
Procedure: To examine the antibacterial effectiveness of the drug-eluting scaffolds, a semi quantitative bacteria inhibition assay was performed using P. aeruginosa. […] Scaffolds with no drugs and filter paper impregnated with the same amount of drugs were used as negative and positive controls, respectively. Gentamicin is widely used as an effective antibiotic agent against a wide range of Gram-negative and Gram-positive bacteria, including P. aeruginosa (25-27). […] The observed white ring around the scaffold within the inhibited zone was suspected to be infected by the bacteria. Therefore, we collected swab samples from three different zones near the scaffold (point 1), in the white region (point 2), and at the edge of the ring (point 3), then plated the samples overnight on another agar plate. […] The formation of the white ring around the scaffold can be attributed to the interaction of the phosphate ions in the agar and calcium ions that were releasing from the calcium alginate scaffolds.
Bacteria viability loss assay: Drug-eluting scaffolds were embedded in alginate patches as described previously; patches were then placed on top of a Tryptic soy agar (TSA, Sigma-Aldrich) plate on which Pseudomonas aeruginosa bacteria were spread and the effect of the antimicrobial was investigated after incubation at 37° C. for 18 hr.

Compound	reduction of dehydration rate [1] [%]	impact of UV exposure on antibacterial efficiency of the drug [2]	effectiveness of topical delivery in the in vitro inhibition assay (P. aeruginosa)
OCC(O)CO [glycerol]	30		
gentamicin sulfate		no impact	demonstrated the effectiveness
